# Patent US20100160214A1 (SERENITY PHARMACEUTICALS CORPORATION, priority 2008, published 2010)
# Read-outs that look alike come from different tables or passages of the source.
# Key:
# clinical = conditions: human, in vivo; for CL/F / bioavailability / Tmax / half-life: both; for bioavailability: F % (fraction bioavailable)
# Procedure: The open-label preliminary study of the effects and pharmacokinetics of the prototype composition was conducted with six male and six female healthy, water loaded, non-smoking volunteer subjects, following the protocol described generally below. In summary, each subject was dosed up to four times over a period of one week with dosing administered every other day. […] All subjects were screened prior to the first treatment, including evaluations of medical history, complete physical exam including nasopharyngeal exam, serum chemistry including serum osmolality, urinalysis including urine osmolality.
# On day one all subjects were asked to have his/her morning void prior to breakfast, and thereafter subjects started the water loading process. […] To achieve a steady state diuresis, the subjects were directed to drink a volume of water corresponding to at least 1.5% and up to 3% of body weight. The water loading process started about two hours prior to the dosing of the first subject. Subjects were asked to void every 20 minutes. To ensure continuous water loaded state, the subjects replaced their urinary output loss with an equivalent amount of fluid. Insensible loss was not measured or replaced. When the urinary output rate exceeded 10 ml/min in two consecutive measurements (defined as water loaded state) in the subjects, dosing began. Subjects were maintained in the water loaded state with equivalent fluid intake versus fluid loss.
# Blood sampling for pharmacokinetic determinations was performed at 1, 1.5, 2, 3, 4 and 6 hours post dose. Two seven ml blood samples were collected at each time point. […] 3.2 (Pharsight Corporation, USA). A plasma concentration value below the limit of quantitation (“LOQ”) followed by values above the limit was set at ‘LOQ/2’ for the analysis and for the descriptive statistics on concentrations. Values below LOQ not followed by values above the LOQ were excluded from the analysis, and set to zero in the descriptive statistics on concentrations.
# (§1) Other than the dose level, all procedures were the same as those described for day one.
# as §1
# Other than the dosing paradigm, all procedures were the same as described on day one.
# Assay values below the level of detection that occurred between two non-zero concentrations were considered to be “missing” for purposes of calculating the AUC. […] Accordingly, an average terminal half-life (Avg T1/2) was calculated for each subject that included a treatment with evaluable half-lives in that subject. […] The AUC could be calculated for each treatment and subject using the calculated average T1/2 value.
# The AUCall is the AUC calculated using the trapezoidal rule that assumes that the concentration declines to 0.00 at the next sample collection time following the last quantifiable concentration. In the cases where concentrations had not declined to below the limit of detection by the time of the last scheduled sample, AUCall was the same as AUCtlqc.
# The AUCtlqc is the AUC as calculated to the Time of the Last Quantifiable Concentration. This value is extrapolated using the ratio of the last quantifiable concentration and the terminal elimination rate to give the AUC∞. Therefore AUC∞ is always larger than the AUCtlqc. AUCall will also always be equal to or greater than AUCtlqc, but may be larger or smaller than AUC∞.
# [1] = in vivo, cited from earlier work
smiles,measurement,setting,value
"NC(=O)CC[C@@H]1NC(=O)[C@H](Cc2ccccc2)NC(=O)[C@H](Cc2ccc(O)cc2)NC(=O)CCSSC[C@@H](C(=O)N2CCC[C@H]2C(=O)N[C@H](CCCN=C(N)N)C(=O)NCC(N)=O)NC(=O)[C@H](CC(N)=O)NC1=O [desmopressin, 1-desamino-8-D-arginine vasopressin]",CL/F,clinical,383 mL/min
same,bioavailability,clinical,~55%
same,CL/F,clinical; sc,233 mL/min
same,Tmax,clinical; sc,0.88 ± 0.349 h
same,half-life,"clinical; sc, Avg T1/2",1.68 ± 0.66 h
same,bioavailability,clinical; sc,100%
same,half-life,"clinical; sc, T1/2",2.09 ± 0.32 h
same,Tmax,clinical; topical or ocular,0.8 ± 0.406 h
same,half-life,"clinical; topical or ocular, Avg T1/2",1.2 ± 0.42 h
same,half-life,"clinical; topical or ocular, T1/2",1.39 ± 0.61 h
same,AUC∞* (modified AUC∞ using average T1/2),clinical; sc,0.00785 ± 0.00421 ng·h/mL
same,AUC∞* (modified AUC∞ using average T1/2),clinical; topical or ocular,0.00446 ± 0.00309 ng·h/mL
same,bioavailability,"[1]; human, inhaled or intranasal",3-5%
same,half life,[1]; human,≥ 1.5 h
same,range of Cmax,"[1]; inhaled or intranasal, 20 ug",6-10 fold
same,bioavailability,[1]; po,far less than one percent
